Measured values from patent US20220347299A1, “FLUORESCENT SYSTEMS FOR BIOLOGICAL IMAGING AND USES THEREOF” (LIGHTOX LIMITED, priority 2019, published 2022).

Experiments:
Type in all cases: cell-based
HaCaT keratinocytes = test: Co-staining with organelle markers, co-localisation (PCC); conditions: 1 μM compound, 30 minutes, BODIPY ER-Tracker Red
Description: To study the localisation of compounds in biological cells, co-staining of compounds of formula I with specific organelle markers (fluorescent dyes and antibodies) within biological cells was conducted. The following compounds were studied: compounds 6, 7, 12, 13, 14 and 15. HaCaT keratinocyte cell lines were used for the following experimental procedures. The cells were incubated in cell culture media (94% Dulbecco's Modified Eagle Medium (DMEM), 5% Foetal Bovine Serum (FBS) and 1% Penicillin Streptomycin solution (Pen-Strep). The cells were plated in 8-well plates, at a concentration of 25,000 cells per ml. 200 μl of cell suspension was added to each well, and the cells were incubated for 2 days before staining and imaging was carried out. In order to visualise the mitochondria, cells were probed with the mitochondrial dye MitoTracker® Deep Red. Cells to be stained were incubated with 200 μl MitoTracker® Deep Red solution (200 nM MitoTracker® and 1 μM Formula I compound in cell culture media) per well (N=3) for 30 minutes. Nile Red was used to identify lipids within the cells. 200 μl Nile Red Lipophilic dye (10 μg/ml Nile Red and 1 μM Formula I compound in cell culture media) was added to each well (N=3) and incubated for 30 minutes. For the detection of lysosomes within the cells, LysoTracker® Red DND-99 dye was used. 200 μl LysoTracker® Red DND-99 (50 nM LysoTracker® and 1 μM Formula I compound solution in cell culture media) was added to each well (N=3) and incubated for 30 minutes. For visualisation of the endoplasmic reticulum (ER), cells were stained with BODIPY® ER-Tracker® Red. 200 μl BODIPY ER-Tracker® Red (1 μM BODIPY® and 1 μM Formula I compound solution in cell culture media) was added to each well (N=3) and incubated for 30 minutes. Following incubation, the cell culture media containing dye was removed, and cells were washed twice with 200 μl phosphate buffered saline (PBS). After washing, 200 μl PBS was added into each well for imaging. For visualisation of the nuclear lamina, cells were probed with an anti-lamin A/C antibody. The cells were plated on 22×22 mm cover slips (10,000 cells/ml) and incubated for 2 days before staining. The cells were washed with PBS to remove excess media before staining. The cells were fixed with 4% paraformaldehyde (PFA) for 10 minutes at room temperature, before being washed twice in PBS for 5 minutes. Following washing, the cells were permeabilised in 0.4% Triton X-100 in PBS for 10 minutes. The cells were subsequently washed three times in PBS for 5 minutes, before being incubated in blocking buffer (1% BSA, 0.1% fish gelatine and 0.1% Triton X-100 in PBS) for 15 minutes at room temperature. The cells were incubated in primary antibody (mouse anti-lamin A/C IgG in blocking buffer) for 1 hour at room temperature. The cells were then washed twice in blocking buffer and incubated in secondary antibody (anti-mouse Alexa-594 IgG in blocking buffer) for 30 minutes at room temperature. Cells were washed twice in PBS for 10 minutes at room temperature. For cell staining with compounds of formula I, 5 μM of the compound of formula I in PBS was added to the cells for 30 minutes at room temperature. Cells were then washed five times for 5 minutes in PBS. Following washing, the cells were mounted onto non-charged microscopy slides using 6 μl Mowiol® per cover slip as mounting media. A Zeiss 880 confocal microscope was used for all the imaging work. [table] Image) Coloc2 software was used to calculate co-localization statistics between the compounds of formula I and the organelle marker images. The background was subtracted from each image and a region of interest (ROI) was used to target the analysis. The point spread function (PSF) of each image was calculated as 2.0 and Coastes' iterations was set to 100. The statistic quantified was the Pearson's Correlation Coefficient (PCC). PCC gives a number ranging from +1 to −1:1=perfect co-localisation; 0=no relationship; and, −1=perfect anti-co-localisation. […]

black-grass cells = test: Cytotoxicity assay (FDA/PI) in black-grass cell suspension culture
Description: 5 mL of black-grass cell suspension culture was treated with 0.1, 1, 5, and 10 μM of compound numbers 7, 14, 12 and 15 for 1 hour at room temperature. Cells treated with 0.1% DMSO were used as a control. Cells were irradiated (˜365 nm) for 5 minutes before being incubated at 25° C., 150 rpm for 24 hours. In addition, the cytotoxicity of the compounds without irradiation was also assessed. Cell viability of five biological replicates for each concentration were determined via fluorescence assay (FDA/PI) assay. Percentage of cell viability was calculated using following formulation:
% viability={live cells (FDA)/(live cells+dead cells)}×100
The statistical analysis of percentage of cell viability was performed through one-way analysis of variance (ANOVA) followed by Tukey HSD posthoc test using SPSS 23 (IBM, Chicago, Ill., USA).

Mycobacterium smegmatis = test: Overnight growth curve (OD 600 nm) cytotoxicity assay, M. smegmatis
Description: A sample of M. smegmatis was taken from a plate culture and inoculated into Middlebrook 7H9 broth containing an added Middlebrook ADC growth supplement to culture overnight at 37° C. for approximately 16 hours.
Samples were incubated in darkness at room temperature for approximately 2 hrs. A black clear bottom Costar™-96 well plate was then filled, with 200 μl of sample in each well Cells were irradiated for 5 minutes at approximately 15 mW/cm^2. The cytotoxicity of the compounds without irradiation was also assessed.
The 96 well plate was put into the plate reader and set up to run a growth curve protocol using the following parameters: • Incubation temperature: 37° C. • OD read wavelength 600 nm • 250 cycles, readings every 5 rains • Shaking for 5 s pre-reading
This was left to run overnight to obtain kinetic growth curves based on optical density readings.

Compound: COC(=O)/C=C/c1ccc(C#Cc2ccc(N(C)CCN)cc2)cc1 [Compound 12, methyl (2E)-3-[4-(2-{4-[(2-aminoethyl)(methyl)amino]phenyl}ethynyl)phenyl]prop-2-enoate]
- average PCC Value with BODIPY ER-Tracker (HaCaT keratinocytes): 0.34
- black-grass cell viability (black-grass cells; 5 μM and 10 μM, after ~365 nm irradiation): significantly reduced
- dependence of cytotoxic effect on irradiation (black-grass cells; black-grass cells, ~365 nm, 5 minutes): only observed after irradiation
- growth of M. smegmatis, radiated samples (Mycobacterium smegmatis; 100 μM, 405 nm, 5 min, approximately 15 mW/cm^2): begin to indicate some cytotoxicity
- growth of M. smegmatis, no photoactivation (Mycobacterium smegmatis; 1-100 μM, not irradiated): no significant difference between the treated and untreated controls
